Consider 14 molecules from patent US20250282724A1, “BENZOTRIAZOLE COMPOUND” (DAIICHI SANKYO COMPANY, LIMITED, priority 2022, published 2025).

Bounds are passed on as bounds.

In data set [1] the test system is NQO1 activity in Hepa1c1c7 cells. Kind of data set: NAD(P)H: quinone oxidoreductase-1 (NQO1) enzyme induction assay (in vitro). It is filed as cell-based, mouse. The settings on record: about 48 hr, ratio from the base without the compound; for activity ratio (NQO1 activity ratio): 400 nM of test compound; for fold induction at 0.4 µM: Mus musculus, Hepa-1c1c7, 400 nM of test compound. The protocol: The NQO1 assay was performed based on a previous report (Methods in Enzymology 2004; 382: 243-258). Hepa1c1c7 cells (mouse hepatocyte cell line, ATCC, cat. no. CRL-2026) were cultured in D-MEM medium containing 10% FBS and 1% penicillin/streptomycin (5% CO2, 37° C.), and seeded into 96-well plates (Corning REF. 353072) at 1×10^4 cells/well. A portion of the wells were prepared with medium only for background measurement without seeding cells. The next day, 400 nM of the test compound (0.004% of the final concentration in DMSO) dissolved in DMSO was added thereto, and the wells were incubated for about 48 hr. A well without adding the test compound was prepared for base activity assay in part.
Cell lysate (solution containing 0.8% digitonin, 2 mM EDTA), reaction solution (solution containing 25 mM Tris-HCl, 0.07% albumin, 0.01% Tween-20, 2 U/mL glucose-6-phosphate dehydrogenase, 5 μM flavin adenine dinucleotide, 1 μM glucose-6-phosphate, […] nicotinamide adenine dinucleotide phosphate, 0.03% 3-(4,5-dimethyl-2-thiazolyl)-2,5-diphenyltetrazolium bromide (MTT), and 50 μM menadione), stop solution (solution containing 0.3 mM dicoumarol and 5 mM potassium dihydrogen phosphate, pH 7.4) were prepared. After the medium was removed, 50 μL of the cell lysate was added and incubated at 37° C. for 10 minutes, followed by shaking at room temperature for 10 minutes. 200 μL of reaction solution was added thereto, and allowed to stand for 5 minutes at room temperature. 50 μL of the stop solution was added thereto, and absorbance was measured at 610 nm on a SpectraMax PLUS384 (Molecular devices) or POWERSCAN HT (DS Pharma Biomedical). The test results were analyzed in Excel, and the NQO1 activity upon addition of 400 nM of test compound was calculated as a ratio from the base without the compound.
The results of each test compound in this test are shown in the following Table 2 (A:5<NQO1 activity ratio, B:3<NQO1 activity ratio≤5).

Data set [2] in a line: Measurement test of plasma drug concentration after oral administration in rats. Conditions: 10 mg/2 mL/kg oral, suspended in 0.5% methylcellulose, male SD rats. It is filed as in vivo, rat. The protocol:
10 mg/2 mL/kg of the test compound suspended in 0.5% methylcellulose solution were force-fed to Male SD rats (7 weeks old, Japan SLC). Blood was collected from the jugular vein using a syringe with heparin at 0.5, 1, 2, 4, 6, and 24 hr after administration. After blood collection, to 20 μL of centrifuged plasma was added an equal volume of acetonitrile followed by 200 μL of internal standard (IS) solution. After agitation, all the supernatant after centrifugation was filtered, and the collected filtrate was used as the assay sample. Equal volumes of the test compound solution prepared in acetonitrile were added to blank plasma, and the samples processed in the same manner as above were used as samples for the calibration curve. The prepared samples were measured using LC/MS/MS, and the area under the blood concentration-time curve (AUC) was calculated from the compound concentration in plasma.

With `CC[C@@H]1CN(Cc2cc([C@@H](CC(=O)O)c3ccc4c(nnn4C)c3C)cc3ccsc23)C(C)c2nc(O)ccc2O1` (single isomer, unassigned) [Example 78, (3R)-3-(1,4-Dimethyl-1H-benzotriazol-5-yl)-3-(7-{[(2R,5S*)-2-ethyl-7-hydroxy-5-methyl-2,3-dihydropyrido[2,3-f][1,4]oxazepin-4(5H)-yl]methyl}-1-benzothiophen-5-yl)propanoic acid], the “activity ratio (NQO1 activity ratio)” value in data set [1] is “A (5<NQO1 activity ratio)”. As for `Cc1c([C@H](CC(=O)O)c2cc(CN3C[C@@H](C4CC4)Oc4ccc(O)nc4C3C)c3sccc3c2)cnc2c1nnn2C` (single isomer, unassigned) [Example 85, (3R)-3-(7-{[(2R,5R*)-2-Cyclopropyl-7-hydroxy-5-methyl-2,3-dihydropyrido[2,3-f][1,4]oxazepin-4(5H)-yl]methyl}-1-benzothiophen-5-yl)-3-(3,7-dimethyl-3H-[1,2,3]triazolo[4,5-b]pyridin-6-yl)propanoic acid], the “activity ratio (NQO1 activity ratio)” value in data set [1] is “A (5<NQO1 activity ratio)”. `CC[C@@H]1CN(Cc2cc([C@H](CC(=O)O)c3ccc4c(nnn4C)c3C)cc3c2CCC3)S(=O)(=O)c2cc(Cl)cnc2O1` [Example 4, (3S)-3-(7-{[(4R)-8-Chloro-4-ethyl-1,1-dioxido-3,4-dihydro-2H-pyrido[2,3-b][1,4,5]oxathiazepin-2-yl]methyl}-2,3-dihydro-1H-inden-5-yl)-3-(1,4-dimethyl-1H-benzotriazol-5-yl)propanoic acid] came in with a maximam plasma concentration in data set [2] of 0.029 µM. Regarding `CC[C@@H]1CN(Cc2cc([C@@H](CC(=O)O)c3ccc4c(nnn4C)c3C)cc3c2CCC3)S(=O)(=O)c2cc(Cl)cnc2O1` [Example 5, (3R)-3-(7-{[(4R)-8-Chloro-4-ethyl-1,1-dioxido-3,4-dihydro-2H-pyrido[2,3-b][1,4,5]oxathiazepin-2-yl]methyl}-2,3-dihydro-1H-inden-5-yl)-3-(1,4-dimethyl-1H-benzotriazol-5-yl)propanoic acid], the maximam plasma concentration in data set [2] worked out at 0.006 µM. Same read-out and setting: the figure for `CC[C@@H]1CN(Cc2cc([C@H](CC(=O)O)c3ccc4c(nnn4C)c3C)cc3ccsc23)S(=O)(=O)c2cc(Cl)cnc2O1` [Example 7, (3S)-3-(7-{[(4R)-8-Chloro-4-ethyl-1,1-dioxido-3,4-dihydro-2H-pyrido[2,3-b][1,4,5]oxathiazepin-2-yl]methyl}-1-benzothiophen-5-yl)-3-(1,4-dimethyl-1H-benzotriazol-5-yl)propanoic acid] is 0.009 µM; for `CC[C@@H]1CN(Cc2cc([C@@H](CC(=O)O)c3ccc4c(nnn4C)c3C)cc3ccsc23)S(=O)(=O)c2cc(Cl)cnc2O1` [Example 8, (3R)-3-(7-{[(4R)-8-Chloro-4-ethyl-1,1-dioxido-3,4-dihydro-2H-pyrido[2,3-b][1,4,5]oxathiazepin-2-yl]methyl}-1-benzothiophen-5-yl)-3-(1,4-dimethyl-1H-benzotriazol-5-yl)propanoic acid] it is 0.005 µM. With `CC[C@@H]1CN(Cc2cc(C(CC(=O)O)c3ccc4c(nnn4C)c3C)cc3c2CCC3)S(=O)(=O)c2ccc(Cl)cc2O1` (stereo partly drawn) [Example 15, 3-(7-{[(4R)-7-Chloro-4-ethyl-1,1-dioxido-3,4-dihydro-2H-5,1,2-benzoxathiazepin-2-yl]methyl}-2,3-dihydro-1H-inden-5-yl)-3-(1,4-dimethyl-1H-benzotriazol-5-yl)propanoic acid], in data set [1], the fold induction – broadly, the signal under treatment as a multiple of the control signal – at 0.4 µM was more than 5. The same measure, in the same setting: the figure for `Cc1c(C(CC(=O)O)c2cc3c(c(CN4CC5(CCOCC5)Oc5ncccc5S4(=O)=O)c2)CCC3)ccc2c1nnn2C` (centres unmarked) [Example 33, 3-(1,4-Dimethyl-1H-benzotriazol-5-yl)-3-{7-[(1′,1′-dioxido-2,3,5,6-tetrahydrospiro[pyran-4,4′-pyrido[2,3-b][1,4,5]oxathiazepine]-2′ (3′H)-yl)methyl]-2,3-dihydro-1H-inden-5-yl}propanoic acid] is more than 5; for `Cc1c(C(CC(=O)O)c2cc3c(c(CN4CC5(CCC5)Oc5ncccc5S4(=O)=O)c2)CCC3)ccc2c1nnn2C` (centres unmarked) [Example 35, 3-(1,4-Dimethyl-1H-benzotriazol-5-yl)-3-{7-[(1′,1′-dioxido-spiro[cyclobutane-1,4′-pyrido[2,3-b][1,4,5]oxathiazepine]-2′(3′H)-yl)methyl]-2,3-dihydro-1H-inden-5-yl}propanoic acid] it is more than 5; for `Cc1c(C(CC(=O)O)c2cc3c(c(CN4CC5(COC5)Oc5ncccc5S4(=O)=O)c2)CCC3)ccc2c1nnn2C` (centres unmarked) [Example 36, 3-(1,4-Dimethyl-1H-benzotriazol-5-yl)-3-{7-[(1′,1′-dioxido-spiro[oxetane-3,4′-pyrido[2,3-b][1,4,5]oxathiazepine]-2′ (3′H)-yl)methyl]-2,3-dihydro-1H-inden-5-yl}propanoic acid] it is more than 5. Regarding `CC[C@@H]1CN(Cc2cc([C@@H](CC(=O)O)c3ccc4c(nnn4C)c3C)cc3c2CCC3)S(=O)(=O)c2cccc(Cl)c2O1` [Example 48, (3R)-3-(7-{[(4R)-6-Chloro-4-ethyl-1,1-dioxido-3,4-dihydro-2H-5,1,2-benzoxathiazepin-2-yl]methyl}-2,3-dihydro-1H-inden-5-yl)-3-(1,4-dimethyl-1H-benzotriazol-5-yl)propanoic acid], in data set [1], the “activity ratio (NQO1 activity ratio)” value is “A (5<NQO1 activity ratio)”.

For `CC[C@@H]1CN(Cc2cc([C@H](CC(=O)O)c3ccc4c(nnn4C)c3C)cc3ccsc23)[C@@H](C)c2ncccc2O1` [Example 62, (3S)-3-(1,4-Dimethyl-1H-benzotriazol-5-yl)-3-(7-{[(2R,5S)-2-ethyl-5-methyl-2,3-dihydropyrido[2,3-f][1,4]oxazepin-4(5H)-yl]methyl}-1-benzothiophen-5-yl)propanoic acid], the “activity ratio (NQO1 activity ratio)” value in data set [1] is “A (5<NQO1 activity ratio)”. Consider `CC[C@@H]1CN(Cc2cc([C@H](CC(=O)O)c3cc(Cl)c4c(nnn4C)c3C)cc3c2CCC3)S(=O)(=O)c2cc(Cl)cnc2O1` [Example 96, (3S)-3-(7-Chloro-1,4-dimethyl-1H-benzotriazol-5-yl)-3-(7-{[(4R)-8-chloro-4-ethyl-1,1-dioxido-3,4-dihydro-2H-pyrido[2,3-b][1,4,5]oxathiazepin-2-yl]methyl}-2,3-dihydro-1H-inden-5-yl)propanoic acid], for which the “activity ratio (NQO1 activity ratio)” value in data set [1] was “A (5<NQO1 activity ratio)”.

With `CC[C@@H]1CN(Cc2cc([C@@H](CC(=O)O)c3cc(Cl)c4c(nnn4C)c3C)cc3c2CCC3)S(=O)(=O)c2cc(Cl)cnc2O1` [Example 97, (3R)-3-(7-Chloro-1,4-dimethyl-1H-benzotriazol-5-yl)-3-(7-{[(4R)-8-chloro-4-ethyl-1,1-dioxido-3,4-dihydro-2H-pyrido[2,3-b][1,4,5]oxathiazepin-2-yl]methyl}-2,3-dihydro-1H-inden-5-yl)propanoic acid], the “activity ratio (NQO1 activity ratio)” value in data set [1] was “A (5<NQO1 activity ratio)”.
